ChEMBL document CHEMBL4400517, “Marine natural products as potential anti-tubercular agents” (Eur J Med Chem, 2019)
Converted amounts (≈) assume the structure as drawn.

Tests used:
[1] = system: Mycolicibacterium smegmatis; assay: Antibiofilm activity against Mycobacterium smegmatis after 5 weeks; type: functional
[2] = target: T1, Phosphotyrosine protein phosphatase (Mycobacterium tuberculosis) (UniProt A0A045ISB3); assay: Inhibition of Mycobacterium tuberculosis Protein Tyrosine Phosphatase B at 100 uM relative to control
T1 sequence (whole entry): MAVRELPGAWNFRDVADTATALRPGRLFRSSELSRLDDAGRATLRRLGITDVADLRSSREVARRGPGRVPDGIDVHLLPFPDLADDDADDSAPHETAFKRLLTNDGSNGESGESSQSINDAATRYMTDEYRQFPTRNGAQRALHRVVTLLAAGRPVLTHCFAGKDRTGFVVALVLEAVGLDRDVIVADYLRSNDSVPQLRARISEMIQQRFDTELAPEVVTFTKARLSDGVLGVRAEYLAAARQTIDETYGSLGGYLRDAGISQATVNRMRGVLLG

[3] = system: Mycobacterium tuberculosis; assay: Antimycobacterial activity against Mycobacterium tuberculosis H37Rv assessed as inhibition of mycobacterial growth at 12.5 ug/ml relative to control; type: functional
[4] = system: Mycobacterium tuberculosis; assay: Antimycobacterial activity against Mycobacterium tuberculosis H37Rv; type: functional, organism-based
Mycolicibacterium vaccae = assay: Antimycobacterial activity against Mycobacterium vaccae assessed as diameter of inhibition zone at 50 ug/disc; type: functional; conditions: read-out: IZ
[5] = system: Mycobacterium tuberculosis; assay: Antimycobacterial activity against Mycobacterium tuberculosis; type: functional
[6] = system: Mycobacterium tuberculosis; assay: Antimycobacterial activity against Mycobacterium tuberculosis H37Ra; type: functional
Mycolicibacterium phlei = assay: Antimycobacterial activity against Mycobacterium phlei assessed as diameter of inhibition zone at 20 ug/disc; type: functional; conditions: read-out: IZ

CC(C)=C/C=C\[C@H](C)[C@H]1CC[C@]2(C)C[C@@H]3C(C)=CC(=O)[C@H]3/C(C=O)=C\C[C@@H]12
MIC [1]: 17 µM (≈ 6.23 µg/mL)

CCCCCCSC1=C(SCCCCCC)C(=O)c2c(O)c3c(c(O)c2C1=O)C[C@](C)(O)[C@H](O)[C@H]3O
inhibition [2]: 56.2%

CC1(C)CCC[C@]2(C)[C@H]3C=C4C=C(O)C(=O)C=C4O[C@@]3(C)CC[C@@H]12 [PUUPEHENONE]
inhibition at 12.5 µg/mL [3]: 99%

COC1=CC(=O)c2c(cc3c(c2O)C[C@@H](O)[C@@](C)(O)C3)C1=O
inhibition [2]: 17.5 to 48.8%

COC1=CC(=O)c2c(O)c3c(c(O)c2C1=O)C[C@]1(C)OC(C=C(C)C)O[C@@H]1[C@H]3O (some centres undefined)
inhibition [2]: 17.5 to 48.8%

COC(=O)/C1=C/c2c([nH]c3ccccc23)/C(C(=O)OC)=C\c2c1[nH]c1ccccc21 [CAULERPIN]
IC50 [4]: 240 nM

CC[C@H]1/C=C/[C@@H]([C@@H](O)C=C(C)C)OC(=O)/C(C)=C\CC(=O)Nc2cc(O)cc3c2O[C@@]2(CC1)CC(=O)[C@@H](C)[C@@H]3O2
zone of inhibition at 50 µg/disc (Mycolicibacterium vaccae): 19 mm

Cc1cc(O)c2c3c(ccc2c1)C(=O)c1c(ccc([C@H]2C[C@@H](O)[C@H](O)[C@@H](C)O2)c1O)C3=O
MIC [5]: 14.4 µM (≈ 6.26 µg/mL)

COC1=CC(=O)c2c(O)c3c(c(O)c2C1=O)C[C@]1(C)OC(C)(C)O[C@@H]1[C@H]3O
inhibition [2]: 17.5 to 48.8%

CCCNC1=CC(=O)c2c(O)c3c(c(O)c2C1=O)C[C@](C)(O)[C@H](O)[C@H]3O
inhibition [2]: 17.5 to 48.8%

COC1=CC(=O)c2c(O)c3c(c(O)c2C1=O)C[C@](C)(O)[C@H](O)[C@H]3O
inhibition [2]: 37%

C1=C\CCCCN2C[C@H]3CCCC/C=C\CCCCN4CC[C@@H]([C@H](CCCCCC/1)C4)[C@H](C3)C2 (relative stereo)
MIC [6]: 5.34 µM (≈ 2.5 µg/mL)

CC[C@H]1/C=C/[C@H](O)[C@H](C=C(C)C)OC(=O)/C(C)=C/CC(=O)Nc2cc(O)cc3c2O/C(=C\C(=O)CC1)C(C)=C3
zone of inhibition at 50 µg/disc (Mycolicibacterium vaccae): 12 mm

CNC1=CC(=O)c2c(O)c3c(c(O)c2C1=O)C[C@](C)(O)[C@H](O)[C@H]3O
inhibition [2]: 17.5 to 48.8%

CNC1=CC(=O)c2c(O)c3c(c(O)c2C1=O)C[C@](C)(O)[C@H](O)C3
inhibition [2]: 9.7%

CC(C)=CCC[C@H](C)[C@H]1CC[C@@H](C)c2c1ccc1ncoc21
inhibition at 12.5 µg/mL [3]: 66%

CC[C@H]1/C=C/[C@@H]([C@@H](O)C=C(C)C)OC(=O)/C(C)=C\[C@@H]2C(=O)NC3=CC(=O)c4c(cc(C)c(O)c4C(=O)CC1)[C@@]32O
zone of inhibition at 50 µg/disc (Mycolicibacterium vaccae): 12 mm

C1=C\CCCC[C@@H]2CN3CCCC/C=C\CCCC[C@H]4C[C@H](CN(CCCCCC/1)C4)[C@H]2CC3 (relative stereo)
MIC [6]: 2.14 µM (≈ 1 µg/mL)

COc1cc(O)c2c(c1O)C(=O)C1=C(C[C@@H](O)[C@@](C)(O)C1)C2=O
inhibition [2]: 17.5 to 48.8%

COC(=O)N[C@H]1[C@@H](C)O[C@@H](O[C@H]2C/C=C(\C)[C@@H]3C=C[C@@H]4[C@@H](O[C@@H]5C[C@@H](O[C@@H]6C[C@@H](O)[C@@H](O[C@H]7C[C@@H](C)[C@H](OC)[C@H](O)C7)[C@H](C)O6)[C@@H](O)[C@H](C)O5)[C@@H](C)C[C@H](C)[C@H]4[C@]3(C)C(=O)C3=C(O)[C@@]4(C[C@@H](C)C(CO)=C[C@H]4/C=C/2C)OC3=O)C[C@]1(C)N
MIC [4]: 27.7 µM (≈ 32 µg/mL)

O[C@]12C=C(c3nccc4c3[nH]c3ccccc34)[C@@H]3CCN(CCCC/C=C\CC1)C[C@@]31C[C@@H]3/C=C\CCCCN3[C@H]12 [MANZAMINE A]
MIC [4]: 1.64 µM (≈ 0.9 µg/mL)

C=C(CC[C@@H](C)[C@H]1CC[C@H]2[C@@H]3CC=C4C[C@@H](O)CC[C@]4(C)[C@H]3CC[C@]12C)C(C)C
MIC [4]: 302 µM (≈ 120 µg/mL)

COC1=C(Br)C(O)[C@@]2(C=C1Br)CC(C(=O)NCCCCNC(=O)C1=NO[C@]3(C=C(Br)C(OC)=C(Br)C3O)C1)=NO2 (some centres undefined)
MIC [5]: 7.99 µM (≈ 6.54 µg/mL)

CC(C)=C/C=C\[C@H](C)[C@H]1CC[C@]2(C)C[C@H]3[C@H](C(=O)C[C@@]3(C)O)/C(C=O)=C\C[C@@H]12
MIC [1]: 4.1 µM (≈ 1.58 µg/mL)

Cc1cc(O)c2c3c(c(O)c4c(c13)O[C@@H](C)[C@]4(C)CO)C(=O)OC2=O
zone of inhibition at 20 µg/disc (Mycolicibacterium phlei): 20 mm

COc1cc(O)c2c(c1O)C(=O)c1cc(C)ccc1C2=O
inhibition [2]: 17.5 to 48.8%

CC(C)=C/C=C\[C@H](C)[C@H]1CC[C@]2(C)C[C@H]3[C@@H](C(=O)C[C@@]3(C)O)/C(C=O)=C\C[C@@H]12
MIC [1]: 65 µM (≈ 25 µg/mL)

COC(=O)c1c(C)cc2c(c1O)[C@@]1(O)C(=O)c3cc4c(c(O)c3C(=O)[C@@]1(OC)CC2)C(=O)C=C(N[C@H]1O[C@@H](C)[C@H](O)[C@@H](O)[C@H]1OC)C4=O
MIC [5]: 1.5 µM (≈ 1 µg/mL)

O=C1CCCN2[C@@H](CC1)C[C@]13CN4CCCC/C=C\CC[C@](O)(C=C(c5nccc6c5[nH]c5ccccc56)[C@@H]1CC4)[C@H]23
MIC [4]: 6.74 µM (≈ 3.81 µg/mL)

CSC1=CC2=C(C(=O)c3ccc([C@H]4C[C@@H](O)[C@H](O[C@H]5CC[C@H](O[C@H]6C[C@@H](O)[C@H](O)[C@@H](C)O6)[C@H](C)O5)[C@@H](C)O4)c(O)c3C2=O)[C@@]2(O[C@H]3CC[C@H](O)[C@H](C)O3)C(=O)C[C@](C)(O)C[C@@]12O
MIC [5]: 14 µM (≈ 12.5 µg/mL)

CC1(C)CCC[C@]2(C)[C@H]3[C@H](C#N)c4cc(O)c(O)cc4O[C@@]3(C)CC[C@@H]12
inhibition at 12.5 µg/mL [3]: 96%

CSC1=CC2=C(C(=O)c3ccc([C@H]4C[C@@H](O)[C@H](O)[C@@H](C)O4)c(O)c3C2=O)[C@@]2(O)C(=O)C[C@](C)(O)C[C@@]12O
MIC [5]: 5.88 µM (≈ 3.13 µg/mL)

CSC1=CC2=C(C(=O)c3ccc([C@H]4C[C@@H](O)[C@H](O)[C@@H](C)O4)c(O)c3C2=O)[C@@]2(O)C(=O)C=C(C)C[C@@]12O
MIC [5]: 24.3 µM (≈ 12.5 µg/mL)

COC1=CC(=O)c2c(O)c3c(c(O)c2C1=O)C[C@]1(C)OC(=O)O[C@@H]1[C@H]3O
inhibition [2]: 17.5 to 48.8%

CC(C)=C[C@@H]1C[C@H](C)[C@H]2CC[C@H](C)c3c2c1c(C)c1ncoc31 [PSEUDOPTEROXAZOLE]
inhibition at 12.5 µg/mL [3]: 97%

C=C(CC[C@@H](C)[C@H]1CC[C@H]2[C@@H]3C(C=O)=C4C[C@@H](O)CC[C@]4(C)[C@H]3CC[C@]12C)C(C)C [PARGUESTEROL A]
MIC [4]: 18.9 µM (≈ 7.81 µg/mL)

O=C1CCCN2[C@@H](CC1)C[C@]13CN4CCCC/C=C\CC[C@](O)(C=C(c5nccc6c5[nH]c5ccc(O)cc56)[C@@H]1CC4)[C@H]23
MIC [4]: 52.1 µM (≈ 30.2 µg/mL)

O=CC1=C[C@@]2(O)CC/C=C\CCCCN3CC[C@@H]1[C@]1(C[C@@H]4/C=C\CCCCN4[C@H]12)C3 [IRCINAL]
MIC [4]: 73.7 µM (≈ 30.2 µg/mL)

C=C(CC[C@@H](C)[C@H]1CC[C@H]2[C@@H]3[C@@H](C=O)[C@]4(O)C[C@@H](O)CC[C@]4(C)[C@H]3CC[C@]12C)C(C)C
MIC [4]: 26.1 µM (≈ 11.2 µg/mL)

CC1(C)CCC[C@]2(C)[C@H]3C(C#N)=C4C=C(O)C(=O)C=C4O[C@@]3(C)CC[C@@H]12
inhibition at 12.5 µg/mL [3]: 90%

COC(=O)N[C@H]1[C@@H](C)O[C@@H](O[C@H]2C/C=C(\C)[C@@H]3C=C[C@@H]4[C@@H](O[C@@H]5C[C@@H](O[C@@H]6C[C@@H](O)[C@@H](O[C@H]7C[C@@H](C)[C@H](OC)[C@H](O)C7)[C@H](C)O6)[C@@H](O)[C@H](C)O5)[C@@H](C)C[C@H](C)[C@H]4[C@]3(C)C(=O)C3=C(O)[C@@]4(C[C@@H](C)C(CO)=C[C@H]4/C=C/2C)OC3=O)C[C@]1(C)[N+](=O)[O-]
MIC [4]: 13.5 µM (≈ 16 µg/mL)

CO[C@H]1/C=C/O[C@@]2(C)Oc3c(C)c(O)c4c(O)c(c(/C=N/N5CCN(C)CC5)c(O)c4c3C2=O)NC(=O)/C(C)=C\C=C\[C@H](C)[C@H](O)[C@@H](C)[C@@H](O)[C@@H](C)[C@H](OC(C)=O)[C@@H]1C [RIFAMPIN]
IC50 [4]: 550 nM

O=C1CCCN2[C@@H](CC1)C[C@]13CN4CCCC/C=C\CC[C@](O)(C=C(c5nccc6c5[nH]c5c(O)cccc56)[C@@H]1CC4)[C@H]23
MIC [4]: 0.69 µM (≈ 0.401 µg/mL)

CC(=O)O[C@H]1C[C@@]2(C)[C@@H](CC[C@H]3[C@@]4(C)C=CC(=O)[C@@H](C)C4[C@H](OC(C)=O)C(=O)[C@@]32C)/C1=C(\CCC=C(C)C)C(=O)O (some centres undefined)
MIC [4]: 0.89 µM (≈ 0.506 µg/mL)

CC(=O)O[C@H]1C[C@H]2[C@]3(C)CC[C@H]4C(C)(C)CCC[C@]4(C)[C@H]3C[C@@H](O)[C@]2(C)[C@@H]2C1=CC[C@H]2OC(C)=O
IC50 [4]: 2670 nM
MIC [4]: 12.8 µM (≈ 6.23 µg/mL)

COC1=CC(=O)c2c(O)c3c(c(O)c2C1=O)C[C@]1(C)OCO[C@@H]1[C@H]3O
inhibition [2]: 17.5 to 48.8%

COC(=O)N[C@H]1[C@@H](C)O[C@@H](O[C@H]2C/C=C(\C)[C@@H]3C=C[C@@H]4[C@@H](O[C@@H]5C[C@@H](O[C@@H]6C[C@@H](O)[C@@H](O[C@H]7C[C@@H](C)[C@H](OC)[C@H](O)C7)[C@H](C)O6)[C@@H](O)[C@H](C)O5)[C@@H](C)C[C@H](C)[C@H]4[C@]3(C)C(=O)C3=C(O)[C@@]4(C[C@@H](C)C(COC(C)=O)=C[C@H]4/C=C/2C)OC3=O)C[C@]1(C)N
MIC [4]: 26.7 µM (≈ 32 µg/mL)

CC[C@H]1/C=C/[C@H](O)[C@H](C=C(C)C)OC(=O)[C@@]2(C)C=CC(=O)Nc3c2c(O)c2c(c(O)c(C)cc2c3O)C(=O)CC1
zone of inhibition at 50 µg/disc (Mycolicibacterium vaccae): 11 mm
